From the SangsterLogP compilation

Tests used:
[1] = method code SF-AS, from Wang, W.; Wang, L.; Tian, L.; Zhang, Z.; Qiu, J. (1987). Partition coefficients of the intermediate of pyrethroid in n-octanol/water system. Huazhong Gongxueyuan Xuebao, 15(1)135-137.

SMILES | logP [1] | logP
Cc1ccc(CC#N)cc1 | 1.67 | 
ClCc1ccc(Cl)cc1 | 3.18 | 
CC(C)C(C#N)c1ccc(Cl)cc1 (stereo not given) | 3.41 | 
N#CCc1ccc(Cl)cc1 | 2.47 | 

Now from value to compound:

logP [1] | logP | SMILES
1.67 |  | COCc1ccccc1
2.41 |  | C=CCOCc1ccccc1
1.23 |  | COCc1ccc(CC#N)cc1
 | 1.23 | COCc1ccc(C#N)cc1
1.28 |  | COCc1ccc(COC)cc1
2.16 |  | CCOCc1ccccc1
